Measurements: patent US5486516A, “Furopyrimidine derivatives” (DowElanco, priority 1993, dated 1996)

Each compound was assayed on Southern corn rootworm (Diabrotica undecimpuctata howardi Barber) (assay: Mite/insect screen, corn rootworm). Conditions: Diabrotica, soil, read-out: CRW results (percent mortality).
Format: in vivo
In short: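 Compound in acetone/alcohol with emulsifiers, diluted with water; 1 mL applied to 15 g dry sandy soil holding a presoaked corn seed. After 6–12 h drying, five 2-3 instar larvae added, held at 23° C; percent mortality and phytotoxicity scored after standard exposure periods.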
For `Cc1oc2ncnc(OC3CN4CCC3CC4)c2c1C` (stereo not drawn) [Example 17, 5,6-dimethyl-4-(1-azabicyclo[2.2.2]oct-3-yloxy)furo[2,3-d]pyrimidine], the mortality at 12 ppm was 0% and the mortality at 24 ppm was 0%.

Same assay, conditions: Diabrotica; CRW rate 12.00 ppm, soil; read-out: CRW results (percent mortality)
With `Cc1oc2ncnc(OCCc3ccc(-c4ccccc4)cc3)c2c1C` [Example 51, 4-[2-[4-biphenylyl]ethoxy]-5,6-dimethylfuro[2,3-d]pyrimidine] the mortality at 12 ppm was 0%. In the case of `Cc1cc2c(NCCc3ccc(Cl)cc3)ncnc2o1` [Example 6, 6-methyl-N-[2-(4-chlorophenyl)ethyl]furo(2,3-d]pyrimidin-4-amine], the mortality at 12 ppm is reported as 0%.

Same assay, conditions: Diabrotica; CRW rate 24.00 ppm, soil; read-out: CRW results (percent mortality)
Work on `Cc1oc2ncnc(OCCc3ccc(-c4ccccc4)cc3)c2c1C` [Example 51, 4-[2-[4-biphenylyl]ethoxy]-5,6-dimethylfuro[2,3-d]pyrimidine] yielded a mortality at 24 ppm of 0%. Work on `Cc1cc2c(NCCc3ccc(Cl)cc3)ncnc2o1` [Example 6, 6-methyl-N-[2-(4-chlorophenyl)ethyl]furo(2,3-d]pyrimidin-4-amine] yielded a mortality at 24 ppm of 0%.

The compounds below were run on southern armyworm (Spodopetra eridania Cramer) (assay: Mite/insect screen, Southern armyworm). Conditions: Spodoptera eridania, read-out: SAW results (percent mortality).
Format: in vivo
In short: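 Compounds in acetone/alcohol with Toximul emulsifiers, diluted in water, sprayed to runoff on squash leaves at 10 psi and dried 1 h. Excised treated leaves fed to southern armyworm larvae in Petri dishes; percent mortality scored after standard exposure.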
Compound `Cc1oc2ncnc(OC3CN4CCC3CC4)c2c1C` (stereo not drawn) [Example 17, 5,6-dimethyl-4-(1-azabicyclo[2.2.2]oct-3-yloxy)furo[2,3-d]pyrimidine] has a mortality at 200 ppm of 0% and a mortality at 400 ppm of 0%.

Same assay, conditions: Spodoptera eridania; rate 200 ppm, sprayed leaves; read-out: SAW results (percent mortality)
Work on `Cc1oc2ncnc(OCCc3ccc(-c4ccccc4)cc3)c2c1C` [Example 51, 4-[2-[4-biphenylyl]ethoxy]-5,6-dimethylfuro[2,3-d]pyrimidine] yielded a mortality at 200 ppm of 0%. With `Cc1cc2c(NCCc3ccc(Cl)cc3)ncnc2o1` [Example 6, 6-methyl-N-[2-(4-chlorophenyl)ethyl]furo(2,3-d]pyrimidin-4-amine] the mortality at 200 ppm was 0%.

Same assay, conditions: Spodoptera eridania; rate 400 ppm, sprayed leaves; read-out: SAW results (percent mortality)
Work on `Cc1oc2ncnc(OCCc3ccc(-c4ccccc4)cc3)c2c1C` [Example 51, 4-[2-[4-biphenylyl]ethoxy]-5,6-dimethylfuro[2,3-d]pyrimidine] yielded a mortality at 400 ppm of 0%. In the case of `Cc1cc2c(NCCc3ccc(Cl)cc3)ncnc2o1` [Example 6, 6-methyl-N-[2-(4-chlorophenyl)ethyl]furo(2,3-d]pyrimidin-4-amine], the mortality at 400 ppm is reported as 0%.

The compounds below were run on Pseudoperonospora cubensis (downy mildew) (assay: Plant pathology screen (Test 1), downy mildew on squash). Conditions: foliar, read-out: DOWN MDEW control rating.
`Cc1oc2ncnc(OCCc3ccc(-c4ccccc4)cc3)c2c1C` [Example 51, 4-[2-[4-biphenylyl]ethoxy]-5,6-dimethylfuro[2,3-d]pyrimidine] showed a pest or weed control at 400 µg/mL of 90 to 100%. `Cc1oc2ncnc(OC3CN4CCC3CC4)c2c1C` (stereo not drawn) [Example 17, 5,6-dimethyl-4-(1-azabicyclo[2.2.2]oct-3-yloxy)furo[2,3-d]pyrimidine] was tested, and the pest or weed control at 400 µg/mL was 0 to 19%. Work on `Cc1cc2c(NCCc3ccc(Cl)cc3)ncnc2o1` [Example 6, 6-methyl-N-[2-(4-chlorophenyl)ethyl]furo(2,3-d]pyrimidin-4-amine] yielded a pest or weed control at 400 µg/mL of 0 to 19%.

The compounds below were run on melon aphids (Aphis gossvpii Glover) (assay: Mite/insect screen, melon aphids). Conditions: Aphis, read-out: MA results (percent mortality).
Format: in vivo
In short: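 Aphids established on squash cotyledons were sprayed to runoff with compound in acetone/alcohol with sulfonate/nonionic emulsifiers, diluted in water to test concentrations. Leaves dried 1 h. Percent mortality scored after standard exposure periods.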
`Cc1oc2ncnc(OC3CN4CCC3CC4)c2c1C` (stereo not drawn) [Example 17, 5,6-dimethyl-4-(1-azabicyclo[2.2.2]oct-3-yloxy)furo[2,3-d]pyrimidine] showed a mortality at 200 ppm of 0% and a mortality at 400 ppm of 0%.

Same assay, conditions: Aphis; rate 200 ppm, sprayed leaves; read-out: MA results (percent mortality)
`Cc1oc2ncnc(OCCc3ccc(-c4ccccc4)cc3)c2c1C` [Example 51, 4-[2-[4-biphenylyl]ethoxy]-5,6-dimethylfuro[2,3-d]pyrimidine] showed a mortality at 200 ppm of 90%. `Cc1cc2c(NCCc3ccc(Cl)cc3)ncnc2o1` [Example 6, 6-methyl-N-[2-(4-chlorophenyl)ethyl]furo(2,3-d]pyrimidin-4-amine] gave a mortality at 200 ppm of 0%.

Same assay, conditions: Aphis; rate 400 ppm, sprayed leaves; read-out: MA results (percent mortality)
In the case of `Cc1oc2ncnc(OCCc3ccc(-c4ccccc4)cc3)c2c1C` [Example 51, 4-[2-[4-biphenylyl]ethoxy]-5,6-dimethylfuro[2,3-d]pyrimidine], the mortality at 400 ppm is reported as 80%. `Cc1cc2c(NCCc3ccc(Cl)cc3)ncnc2o1` [Example 6, 6-methyl-N-[2-(4-chlorophenyl)ethyl]furo(2,3-d]pyrimidin-4-amine] was tested, and the mortality at 400 ppm was 0%.

What follows are compounds tested on Erysiphe graminis tritici (powdery mildew) (assay: Plant pathology screen (Test 1), powdery mildew on wheat). Conditions: Blumeria graminis, in Triticum aestivum, foliar, read-out: POWD MDEW control rating.
In the case of `Cc1oc2ncnc(OCCc3ccc(-c4ccccc4)cc3)c2c1C` [Example 51, 4-[2-[4-biphenylyl]ethoxy]-5,6-dimethylfuro[2,3-d]pyrimidine], the pest or weed control at 400 µg/mL is reported as 0 to 19%. Compound `Cc1oc2ncnc(OC3CN4CCC3CC4)c2c1C` (stereo not drawn) [Example 17, 5,6-dimethyl-4-(1-azabicyclo[2.2.2]oct-3-yloxy)furo[2,3-d]pyrimidine] has a pest or weed control at 400 µg/mL of 0 to 19%. `Cc1cc2c(NCCc3ccc(Cl)cc3)ncnc2o1` [Example 6, 6-methyl-N-[2-(4-chlorophenyl)ethyl]furo(2,3-d]pyrimidin-4-amine] showed a pest or weed control at 400 µg/mL of 0 to 19%.

Each compound was assayed on Pyricularia oryzae (rice blast) (assay: whole plant or invertebrate). Conditions: foliar, read-out: RICE BLAST control rating.
Format: in vivo
`Cc1oc2ncnc(OCCc3ccc(-c4ccccc4)cc3)c2c1C` [Example 51, 4-[2-[4-biphenylyl]ethoxy]-5,6-dimethylfuro[2,3-d]pyrimidine] gave a pest or weed control at 400 µg/mL of 0 to 19%. `Cc1oc2ncnc(OC3CN4CCC3CC4)c2c1C` (stereo not drawn) [Example 17, 5,6-dimethyl-4-(1-azabicyclo[2.2.2]oct-3-yloxy)furo[2,3-d]pyrimidine] gave a pest or weed control at 400 µg/mL of 0 to 19%. `Cc1cc2c(NCCc3ccc(Cl)cc3)ncnc2o1` [Example 6, 6-methyl-N-[2-(4-chlorophenyl)ethyl]furo(2,3-d]pyrimidin-4-amine] gave a pest or weed control at 400 µg/mL of 0 to 19%.

Each compound was assayed on Puccinia recondita tritici (leaf rust) (assay: Plant pathology screen (Test 1), leaf rust on wheat). Conditions: in Triticum aestivum, foliar, read-out: LEAF RUST control rating.
Work on `Cc1oc2ncnc(OCCc3ccc(-c4ccccc4)cc3)c2c1C` [Example 51, 4-[2-[4-biphenylyl]ethoxy]-5,6-dimethylfuro[2,3-d]pyrimidine] yielded a pest or weed control at 400 µg/mL of 0 to 19%. `Cc1oc2ncnc(OC3CN4CCC3CC4)c2c1C` (stereo not drawn) [Example 17, 5,6-dimethyl-4-(1-azabicyclo[2.2.2]oct-3-yloxy)furo[2,3-d]pyrimidine] showed a pest or weed control at 400 µg/mL of 0 to 19%. Compound `Cc1cc2c(NCCc3ccc(Cl)cc3)ncnc2o1` [Example 6, 6-methyl-N-[2-(4-chlorophenyl)ethyl]furo(2,3-d]pyrimidin-4-amine] has a pest or weed control at 400 µg/mL of 0 to 19%.

These compounds were tested on Twospotted spider mites (Tetranychus urticae Koch) (assay: Mite/insect screen, twospotted spider mites). Conditions: Tetranychus urticae, rate 200 ppm, sprayed leaves; read-out: SM results (percent mortality).
Format: in vivo
In short: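 Squash cotyledons infested with mites were sprayed to runoff at 10 psi with compound in acetone/alcohol plus emulsifiers, diluted in water to the stated concentrations. Percent mortality and phytotoxicity were scored after standard exposure periods.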
In the case of `Cc1oc2ncnc(OCCc3ccc(-c4ccccc4)cc3)c2c1C` [Example 51, 4-[2-[4-biphenylyl]ethoxy]-5,6-dimethylfuro[2,3-d]pyrimidine], the mortality at 200 ppm is reported as 100%. Work on `Cc1cc2c(NCCc3ccc(Cl)cc3)ncnc2o1` [Example 6, 6-methyl-N-[2-(4-chlorophenyl)ethyl]furo(2,3-d]pyrimidin-4-amine] yielded a mortality at 200 ppm of 0%.

Same assay, conditions: Tetranychus urticae, rate 400 ppm, sprayed leaves; read-out: SM results (percent mortality)
Work on `Cc1oc2ncnc(OCCc3ccc(-c4ccccc4)cc3)c2c1C` [Example 51, 4-[2-[4-biphenylyl]ethoxy]-5,6-dimethylfuro[2,3-d]pyrimidine] yielded a mortality at 400 ppm of 80%. `Cc1cc2c(NCCc3ccc(Cl)cc3)ncnc2o1` [Example 6, 6-methyl-N-[2-(4-chlorophenyl)ethyl]furo(2,3-d]pyrimidin-4-amine] showed a mortality at 400 ppm of 0%.

Same assay, conditions: Tetranychus urticae, read-out: SM results (percent mortality)
`Cc1oc2ncnc(OC3CN4CCC3CC4)c2c1C` (stereo not drawn) [Example 17, 5,6-dimethyl-4-(1-azabicyclo[2.2.2]oct-3-yloxy)furo[2,3-d]pyrimidine] was tested, and the mortality at 200 ppm was 0% and the mortality at 400 ppm was 0%.

The compounds below were run on Botrytis cinerea (gray mold) (assay: Plant pathology screen (Test 1), gray mold on grape berries). Conditions: read-out: GRAY MOLD control rating.
Work on `Cc1oc2ncnc(OCCc3ccc(-c4ccccc4)cc3)c2c1C` [Example 51, 4-[2-[4-biphenylyl]ethoxy]-5,6-dimethylfuro[2,3-d]pyrimidine] yielded a pest or weed control at 400 µg/mL of 0 to 19%. With `Cc1oc2ncnc(OC3CN4CCC3CC4)c2c1C` (stereo not drawn) [Example 17, 5,6-dimethyl-4-(1-azabicyclo[2.2.2]oct-3-yloxy)furo[2,3-d]pyrimidine] the pest or weed control at 400 µg/mL was 0 to 19%. `Cc1cc2c(NCCc3ccc(Cl)cc3)ncnc2o1` [Example 6, 6-methyl-N-[2-(4-chlorophenyl)ethyl]furo(2,3-d]pyrimidin-4-amine] showed a pest or weed control at 400 µg/mL of 0 to 19%.
